Test results published in USRE47437E1, “Prolyl hydroxylase inhibitors and methods of use” (Akebia Therapeutics, Inc., priority 2015, dated 2019).

Columns and labels:
[1] = tested on: EPO; assay: Mouse serum EPO assay (mouse ischemic hindlimb study); assay type: in vivo; conditions: versus vehicle; after oral dosing; FIG. 2
Experimental: (§1) Mouse Ischemic Hindlimb Study
(§2) All animal work is conducted in accordance with the Guide for the Care and Use of Laboratory Animals (National Academy of Sciences; Copyright© 1996) and the Institutional Animal Care and Use Committee guidelines at Procter and Gamble Pharmaceuticals. We studied 9-10 week old male C57Bl/6 mice from Charles River Laboratory (Portage, Mich.). The mice are orally dosed with vehicle (aqueous carbonate buffer, 50 mM; pH 9.0) or compound 1 in vehicle at 50 mg/kg or 100 mg/kg. The animals are dosed three times: day 1 at 8 am and 5 pm, day 2 at 8 am. One hour after the first dose, unilateral arterial ligation is performed under anesthesia using isoflurane. The femoral artery is ligated proximal to the origin of the popliteal artery. The contralateral limb underwent a sham surgical procedure. Ligation is performed in an alternating fashion between right and left hindlimbs. Two hours after 8 am dosing on day 2, we obtained blood by ventricular stick while the mice are anesthetized with isoflurane. Serum samples for EPO analysis are obtained using gel clot serum separation tubes. Heart, liver, and gastrocnemius muscles are harvested, snap-frozen in liquid nitrogen, and stored in −80° C. until use.
The mouse serum EPO is detected using Mouse Quantikine Erythropoietin ELISA kit from R&D Systems according to manufacturer's instructions.

[2] = tested on: HIF-1α; assay: Mouse tissue HIF Western blot analysis; assay type: in vivo; conditions: mouse liver; FIG. 1
Experimental: as §1, §2
Mouse Tissue HIF Western Blot Analysis
Tissues from mice stored at −80° C. are powdered with mortar and pestle chilled with liquid nitrogen. […]

O=C(O)CNC(=O)c1ncc(-c2cccc(Cl)c2)cc1O [{[5-(3-Chlorophenyl)-3-hydroxypyridine-2-carbonyl]amino}-acetic acid] was tested, and the “erythropoietin level in mouse serum” value [1] was “elevated versus vehicle” and the “stabilization of HIF-1α, immunoblot analysis of nuclear extracts” value [2] was “stabilization of HIF-1α in mouse liver”.
